Source: patent US11298346B2, “Methods for treatment of fibrotic diseases” (Beta Cat Pharmaceuticals, Inc., priority 2017, dated 2022)
Values joined by “and” are separate entries in the source; they are usually repeats but may differ in a detail not shown here. Equal values may be shown once.

Assays:
[1] = test system: primary palmar fascia fibroblasts derived from the fibrotic palmar fascia (DD249 cells); experiment: Alamar Blue proliferation/viability assay, DD249 cells; type: cell-based, human; settings: for proliferation/viability: DD249 cells, 48 and 72 hrs relative to 24 hrs
Procedure: Tegavivint (BC-2059) powder was reconstituted it in 100% dimethyl sulfoxide (DMSO) to a 10_mM stock solution. The stock was diluted to 100 nM in serum-free media (α minimal essential medium, αMEM), and further diluted to 100 pM in serum-free αMEM immediately before the analyses were performed. Serial dilutions from 100 pM down to 0.78 pM were assessed in various assays. 0.001% DMSO in αMEM was used as the vehicle control, and αMEM alone was used as an untreated control, in a subset of analyses.
Proliferation/viability analyses were performed in triplicate on primary palmar fascia fibroblasts derived from the fibrotic palmar fascia (DD cells) of 2 patients with Dupuytren's disease (DD249, DD77) and syngeneic primary palmar fascia fibroblasts derived from visibly non-fibrotic palmar fascia (PF cells) from these patients (PF249, PF77). Cells were cultured on type-1 collagen coated 96 well trays for these analyses to better replicate substrate interactions in vivo. Two independent assays were used for these analyses: Alamar Blue assays for analyses up to 72 hrs in cells derive from 1 patient, and Water Soluble Tetrazolium-(WST-1) assays for analyses up to 24 hrs in cells derived from the other patients. Significant effects of treatment on proliferation over time were detected by ANOVA repeated measures.

[2] = Lung concentration after nebulizing delivery of Tegavivint formulations (whole body exposure); type: in vivo, bcat-Ex3 mice; settings: mouse lung, individual animals, listed as BC2059
Procedure: Tegavivint particles suspended in Poloxamer 188/sorbitol at a concentration of 25 mg/mL were used. These formulations were applied to the mice in the form of aerosols, through the method of whole body exposure. The mice were placed inside a plastic box. This box was sealed and connected by one of its sides to the outlet of the nebulizer device, and on the other side to a system of closed water. The whole procedure was carried out inside the fume hood of the animal room.
For the first experiment, the nebulizer kit of SATER LABS was used. This device uses the jet system. The device was primed with 5 ml of the drug, i.e. 125 mg of tegavivint (BC2059), for each group of 5 mice, and then the device was connected to the power source for nebulization. The energy was supplied by a DeVilbiss compressor model 646, which allows 5-7 pounds of pressure, and a flow of 6-8 liters per minute. For the second experiment, the device used was the Altera, ultrasonic nebulizer.
For the two experiments, 10 male bcat-Ex3 mice were used for each set. These mice were separated into 2 groups of 5 mice each. The first group received the drug daily, for 5 consecutive days. The second group received the drug only once (the fifth day). On day 5 all mice were sacrificed, lung harvested, and samples were stored at −30 degrees, in two labeled nylon bags, each containing the 5 samples from each group.

[3] = test system: bleomycin-induced idiopathic pulmonary fibrosis (IPF); experiment: Nebulized tegavivint nanosuspension in mouse model of bleomycin-induced idiopathic pulmonary fibrosis; type: in vivo, C57BL/6 male mice
Procedure: The purpose of this experiment was to investigate tegavivint nanosuspension in a mouse model of bleomycin-induced idiopathic pulmonary fibrosis (IPF). Test articles 10 were as follows:
Tegavivint (BC2059) in a nano-milled suspension 25 mg/mL in 0.625% poloxamer 188 and 10% sorbitol. The compound was refrigerated at about 4° C.
Nebulizing equipment was Altera ultrasonic eRapid machine nebulizer (model #678G1002).
Animals were 8-12 week old C57BL/6 male mice (Jackson Lab, Bar Harbor, Me.).
Murine model of pulmonary fibrosis was induced by intratracheally (IT) injected bleomycin (APP Pharmaceuticals, Schaumburg, Ill.). One dose of 0.025 U bleomycin dissolved in 50 microliters of Saline 0.9%, or PBS as control was administered to each animal on day 0.
Tegavivint nanosuspension was applied to Group 3 in the form of aerosols, through the method of whole body exposure. The mice were placed inside a plastic box. This box was sealed and connected by one of its sides to the outlet of the nebulizer device, and on the other side to a system of closed water. The whole procedure was carried out inside the fume hood of the animal room. In each treatment session, 5 ml of 25 mg/ml Tegavivint (125 mg) was nebulized over 15 min to each group of 4-5 mice in the chamber. To increase exposure of the mice to the aerosol, Tegavivint that precipitated in the aerosol chamber was collected with a syringe and re-nebulized a second and a third time. Mice were nebulized twice a day between day 5 and day 21 after administration of bleomycin. Group 1 and 2 received nebulized vehicle 5 ml in the same manner.
The body weight of animals was recorded on Days 0, 5, 8, 12, 16, 19, and 21.
Measurements of lung mechanics were performed on Day 21 as previously described (Morales-Nebreda L, et al. AJRCMB 2015) on Day 21 using a FlexiVent mouse ventilator (Scireq, Montreal, PQ, Canada) according to the protocols established by Scireq. A standard ventilation history for each mouse was obtained with three total lung capacity maneuvers before the forced oscillation and quasistatic pressure-volume curve protocols that were used to calculate airway resistance, dynamic and quasistatic tissue compliance, and elastance.
On Day 21 all animals were sacrificed and lungs were harvested. Total lung collagen content was evaluated using the Hydroxyproline Assay as previously described (Morales-Nebreda L, et al. AJRCMB 2015). In brief, mouse lungs were harvested and suspended in 1 ml of 0.5 M acetic acid and then homogenized, first with a tissue homogenizer (60 s on ice) and then using 15 strokes in a Dounce homogenizer (on ice). The resulting homogenate was spun (12,000×g) for 10 minutes, and the supernatant was used for subsequent analyses. Collagen standards were prepared in 0.5 M acetic acid using rat tail collagen (Sigma-Aldrich, St. Louis, Mo.). Picrosirius red dye was prepared by mixing 0.2 g of Sirius red F3B (Sigma-Aldrich) with 200 ml of […]; 1 ml of the Picrosirius red dye was added to 100 μl of the collagen standard or the lung homogenates and then mixed continuously at room temperature on an orbital shaker for 30 minutes. The precipitated collagen was then pelleted and washed once with 0.5 M acetic acid (12,000×g for 15 min each). The resulting pellet was resuspended in 1 ml of 0.5 M NaOH and Sirius red staining was quantified spectrophotometrically (540 nm) using a colorimetric plate reader (Bio-Rad, Hercules, Calif.).

[4] = Aerosol jet nebulizer (Sater Labs), 1 day (single-dose on Day 5)
[5] = Aerosol jet nebulizer (Sater Labs), 5 day (5 daily doses on Days 1-5)
[6] = Nebulizer ultrasonic eRapid (Altera), 1 day (single-dose on Day 5)
[7] = Nebulizer ultrasonic eRapid (Altera), 5 day (5 daily doses on Days 1-5)
[8] = Group 3, inhaled tegavivint after bleomycin injury
[9] = Group 3: IT bleomycin Day 0, 5 ml of 25 mg/ml tegavivint aerosol BID Day 5-21, Day 21, individual animals

With Tegavivint the proliferation/viability ([1]; 25 pM) was “viable and able to proliferate to significantly greater cell numbers”, the proliferation/viability ([1]; 50 pM) was “unable to proliferate” and the “therapeutic window concentration (proliferation of fibrosis-derived but not syngeneic palmar fascia derived cells inhibited)” value ([1]; DD versus PF cells, preliminary analyses) was “approximately 50 pM”. The cytotoxic concentrations ([1]; fibrosis-derived fibroblasts, both proliferation/viability assays and visual inspection) was over 100 pM, the “effects on cell proliferation/viability” value ([1]; ≤25 pM) was “did not identify any consistent effects” and the “Lung Concentration (ng/g)” value [2, 4] was 5040 ng/g and 16800 ng/g and 56800 ng/g and 5200 ng/g and 17100 ng/g. The “Lung Concentration (ng/mL)” value [2, 4] was 1260 ng/mL and 4190 ng/mL and 14200 ng/mL and 1300 ng/mL and 4270 ng/mL, the “Lung Concentration (ng/g)” value [2, 5] was 18600 ng/g and 6600 ng/g and 14500 ng/g and 12300 ng/g and 14200 ng/g and the “Lung Concentration (ng/mL)” value [2, 5] was 4640 ng/mL and 1650 ng/mL and 3620 ng/mL and 3080 ng/mL and 3550 ng/mL. The “Lung Concentration (ng/g)” value [2, 6] was 11400 ng/g and 11600 ng/g and 34600 ng/g and 15100 ng/g and 2400 ng/g, the “Lung Concentration (ng/mL)” value [2, 6] was 2840 ng/mL and 2910 ng/mL and 8660 ng/mL and 3780 ng/mL and 601 ng/mL and the “Lung Concentration (ng/g)” value [2, 7] was 19100 ng/g and 17200 ng/g and 18800 ng/g and 12200 ng/g and 22900 ng/g. For the same substance, the “Lung Concentration (ng/mL)” value [2, 7] was 4770 ng/mL and 4290 ng/mL and 4690 ng/mL and 3040 ng/mL and 5730 ng/mL, the “body weight loss caused by bleomycin induced lung injury” value ([3]; Group 3, inhaled tegavivint) was “reversed the body weight loss” and the lung compliance [3, 8] was “reversed the compliance values to near those of the sham-treated controls”. The “total lung collagen content (Hydroxyproline assay)” value [3, 8] was “reversed this change and the collagen levels are closed to sham-treated controls”, the “Compliance (ml/cm H20)” value [3, 9] was 0.05515 ml/cm H20 and 0.05604 ml/cm H20 and 0.06762 ml/cm H20 and 0.0543 ml/cm H20 and 0.0561 ml/cm H20 and the “Hydroxyproline (μg/half lung)” value [3, 9] was 70.016 μg/half lung and 39.44 μg/half lung and 45.68 μg/half lung and 58.784 μg/half lung and 64.296 μg/half lung. The “Change in body weight (%)” value ([3]; Group 3: IT bleomycin Day 0, 5 ml of 25 mg/ml tegavivint aerosol BID Day 5-21, individual animals) was −2.83% and 5.2% and 7.3% (2×) and 7.9%.
